Measured values published in US12453784B2 (priority 2018, dated 2025).

Experiments:
[1] = test infusion, 500 μL to each motor cortex
[2] = tested on: release of neurotransmitters including acetylcholine, norepinephrine, and glutamate; settings: in vivo; cited from earlier work

Row | Molecule | motor cortical coverage [1] | period of reversible inhibition of neurotransmitter release [2]
1 | [Gd] [gadolinium] | satisfactory motor cortical coverage | 
2 | Botulinum toxin type A |  | 2-6 months
